The source of these data is ChEMBL document CHEMBL2311491, “Development of new cyclic plasmin inhibitors with excellent potency and selectivity” (J Med Chem, 2013).

Test [1] deals with Trypsin (Sus scrofa, UniProt P00761). Put plainly: Inhibition of pig trypsin using CH3SO2-D-Cha-Gly-Arg-pNA as substrate after 5 to 10 mins by micro plate reader analysis.
For test [2], the target named is Vitamin K-dependent protein C (Homo sapiens, UniProt P04070). The test can be described thus: Inhibition of human activated protein C using H-D-Lys(Cbz)-Pro-Arg-pNA as substrate after 5 to 10 mins by micro plate reader analysis.
In test [3] the target is Prothrombin (Homo sapiens, UniProt P00734). Put plainly: Inhibition of human thrombin using CH3SO2-D-Cha-Gly-Arg-pNA as substrate after 5 to 10 mins by micro plate reader analysis.
For test [4], the target named is Plasma kallikrein (Homo sapiens, UniProt P03952). Put plainly: Inhibition of human plasma kallikrein using H-D-Pro-Phe-Arg-pNA as substrate after 5 to 10 mins by micro plate reader analysis.
The target in test [5] is Coagulation factor X (Homo sapiens, UniProt P00742). Put plainly: Inhibition of human factor Xa using CH3OCO-D-Cha-Gly-Arg-pNA as substrate after 5 to 10 mins by micro plate reader analysis.
Test [6] addresses Plasminogen (Homo sapiens, UniProt P00747). Put plainly: Inhibition of human plasmin protease domain using Tos-Gly-Pro-Lys-pNA as substrate by micro plate reader analysis.

Chain of Plasminogen (P00747 97-580 limits assumed): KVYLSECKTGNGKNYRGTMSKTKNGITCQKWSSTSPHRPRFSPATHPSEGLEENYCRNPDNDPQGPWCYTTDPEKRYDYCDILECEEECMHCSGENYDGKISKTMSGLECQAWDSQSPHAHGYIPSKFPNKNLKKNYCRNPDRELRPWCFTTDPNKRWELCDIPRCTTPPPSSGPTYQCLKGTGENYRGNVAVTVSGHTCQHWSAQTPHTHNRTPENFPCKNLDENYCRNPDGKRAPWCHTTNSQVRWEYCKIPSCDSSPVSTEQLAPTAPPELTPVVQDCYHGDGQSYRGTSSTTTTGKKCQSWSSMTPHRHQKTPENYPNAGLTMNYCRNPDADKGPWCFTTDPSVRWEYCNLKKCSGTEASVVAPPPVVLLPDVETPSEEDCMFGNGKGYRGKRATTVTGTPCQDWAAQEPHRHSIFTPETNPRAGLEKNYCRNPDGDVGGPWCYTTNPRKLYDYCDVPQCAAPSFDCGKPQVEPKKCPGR
Chain of Plasminogen (P00747 581-810 limits assumed): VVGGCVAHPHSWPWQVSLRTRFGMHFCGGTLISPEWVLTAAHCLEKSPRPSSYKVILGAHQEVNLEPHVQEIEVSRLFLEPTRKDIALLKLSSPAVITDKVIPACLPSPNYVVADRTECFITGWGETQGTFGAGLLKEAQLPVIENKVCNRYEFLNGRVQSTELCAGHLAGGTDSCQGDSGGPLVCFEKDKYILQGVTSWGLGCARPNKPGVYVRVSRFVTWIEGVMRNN
Chain of Vitamin K-dependent protein C (P04070 43-197 limits assumed): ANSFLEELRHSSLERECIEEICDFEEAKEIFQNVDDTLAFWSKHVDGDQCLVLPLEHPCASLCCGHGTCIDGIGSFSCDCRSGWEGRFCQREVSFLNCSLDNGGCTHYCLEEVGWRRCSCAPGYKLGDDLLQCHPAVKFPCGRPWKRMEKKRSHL
Chain of Vitamin K-dependent protein C (P04070 212-461 limits assumed): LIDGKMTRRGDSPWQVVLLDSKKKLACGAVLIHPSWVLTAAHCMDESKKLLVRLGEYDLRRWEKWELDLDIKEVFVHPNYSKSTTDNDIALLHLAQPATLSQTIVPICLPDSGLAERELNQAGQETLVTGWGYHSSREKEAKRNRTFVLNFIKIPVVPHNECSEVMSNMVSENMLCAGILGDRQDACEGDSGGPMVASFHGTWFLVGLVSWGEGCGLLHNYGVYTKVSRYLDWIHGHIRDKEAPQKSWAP
Chain of Trypsin (P00761 whole entry): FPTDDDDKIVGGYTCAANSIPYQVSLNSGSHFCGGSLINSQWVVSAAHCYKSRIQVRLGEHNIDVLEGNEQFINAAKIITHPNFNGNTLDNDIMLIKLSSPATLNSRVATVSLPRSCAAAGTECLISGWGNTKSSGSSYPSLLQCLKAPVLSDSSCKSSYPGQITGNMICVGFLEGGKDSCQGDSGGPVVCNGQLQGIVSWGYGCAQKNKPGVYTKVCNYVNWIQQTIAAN
Chain of Coagulation factor X (P00742 41-179 limits assumed): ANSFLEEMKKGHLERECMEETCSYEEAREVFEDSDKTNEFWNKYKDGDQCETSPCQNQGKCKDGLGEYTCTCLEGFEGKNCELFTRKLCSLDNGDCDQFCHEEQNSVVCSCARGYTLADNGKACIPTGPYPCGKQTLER
Chain of Coagulation factor X (P00742 235-488 limits assumed): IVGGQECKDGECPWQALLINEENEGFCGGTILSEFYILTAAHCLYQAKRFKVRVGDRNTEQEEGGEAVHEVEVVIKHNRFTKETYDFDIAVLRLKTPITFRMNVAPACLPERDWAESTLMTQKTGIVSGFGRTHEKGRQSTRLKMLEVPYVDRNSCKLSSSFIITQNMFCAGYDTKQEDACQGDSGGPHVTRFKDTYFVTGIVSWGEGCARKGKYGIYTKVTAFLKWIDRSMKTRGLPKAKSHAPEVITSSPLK
Chain of Plasma kallikrein (P03952 20-390 limits assumed): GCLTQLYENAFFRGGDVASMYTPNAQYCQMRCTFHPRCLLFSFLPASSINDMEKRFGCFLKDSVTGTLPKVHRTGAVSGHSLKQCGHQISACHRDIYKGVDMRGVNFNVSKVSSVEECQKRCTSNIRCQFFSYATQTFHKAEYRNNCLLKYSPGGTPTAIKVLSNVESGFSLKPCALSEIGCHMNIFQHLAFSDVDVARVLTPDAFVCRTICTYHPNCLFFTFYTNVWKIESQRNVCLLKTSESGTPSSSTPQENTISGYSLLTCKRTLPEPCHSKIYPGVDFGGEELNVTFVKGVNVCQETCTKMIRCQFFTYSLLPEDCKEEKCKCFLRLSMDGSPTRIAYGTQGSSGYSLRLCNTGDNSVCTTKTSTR
Chain of Plasma kallikrein (P03952 391-638 limits assumed): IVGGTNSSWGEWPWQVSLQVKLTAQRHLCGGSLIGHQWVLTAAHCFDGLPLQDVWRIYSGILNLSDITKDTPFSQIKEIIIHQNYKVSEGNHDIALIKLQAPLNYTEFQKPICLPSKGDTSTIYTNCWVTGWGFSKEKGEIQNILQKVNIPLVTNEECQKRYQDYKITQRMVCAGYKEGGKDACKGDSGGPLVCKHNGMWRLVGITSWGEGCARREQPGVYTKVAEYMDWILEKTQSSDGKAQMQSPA

With `N=C(N)c1ccc(CNC(=O)[C@@H]2Cc3cccc(c3)NC(=O)CN3CCN(CC3)CC(=O)Nc3cccc(c3)C[C@@H](NS(=O)(=O)Cc3ccccc3)C(=O)N2)cc1`, the Ki amounted to 3.4 nM in test [1]; 39 nM in test [2]; 227 nM in test [3]; 3.2 nM in test [4]; 12.3 nM in test [5].
Consider `N=C(N)c1ccc(CNC(=O)[C@@H]2Cc3cccc(c3)NC(=O)CCN3CCN(CCC(=O)Nc4ccc(cc4)C[C@@H](NS(=O)(=O)Cc4ccccc4)C(=O)N2)CC3)cc1`, for which the Ki in test [1] was found to be 24.9 nM; in test [2], 880 nM; in test [3] it was 3250 nM; in test [4] it was 24 nM; in test [6] it was 5.1 nM; in test [5], 237 nM.
As to `N=C(N)c1ccc(CNC(=O)[C@@H]2Cc3ccc(cc3)NC(=O)CN3CCN(CC3)CC(=O)Nc3cccc(c3)C[C@@H](NS(=O)(=O)Cc3ccccc3)C(=O)N2)cc1`, the Ki in test [1] stood at 7.8 nM; in test [2], 420 nM; in test [3], 604 nM; in test [4] it was 118 nM; in test [5] it was 415 nM.
In the same order, the values of `N=C(N)c1ccc(CNC(=O)[C@@H]2Cc3ccc(cc3)NC(=O)CN3CCN(CC3)CC(=O)NCc3ccc(cc3)C[C@@H](NS(=O)(=O)Cc3ccccc3)C(=O)N2)cc1` are 17.8 nM, 3900 nM, 884 nM, 187 nM and 2510 nM.
With `C[C@@H]1CN2CC(=O)Nc3ccc(cc3)C[C@@H](C(=O)NCc3ccc(C(=N)N)cc3)NC(=O)[C@H](NS(=O)(=O)Cc3ccccc3)Cc3ccc(cc3)NC(=O)CN1C[C@@H]2C`, the Ki is 18.1 nM in test [1]; greater than 20000 nM in test [2]; 12100 nM in test [3]; 500 nM in test [4]; 1.15 nM in test [6]; 14000 nM in test [5].
For the compound `N=C(N)c1ccc(CNC(=O)[C@@H]2Cc3ccc(cc3)NC(=O)CN3CCCN(CC3)CC(=O)NCc3ccc(cc3)C[C@@H](NS(=O)(=O)Cc3ccccc3)C(=O)N2)cc1`, the Ki in test [1] was 41.7 nM; in test [2], greater than 10000 nM; in test [3], 5870 nM; in test [4], 440 nM; in test [6] it was 0.76 nM; in test [5], 9000 nM.
For `N=C(N)c1ccc(CNC(=O)[C@@H]2Cc3ccc(cc3)NC(=O)CCN3CCN(CCC(=O)Nc4cccc(c4)C[C@@H](NS(=O)(=O)Cc4ccccc4)C(=O)N2)CC3)cc1`, the Ki in test [1] was 0.6 nM; in test [2], 3800 nM; in test [3], 376 nM; in test [4], 240 nM; in test [6] it was 4 nM; in test [5], 1260 nM.
Regarding `C[C@H]1CN2CC(=O)Nc3ccc(cc3)C[C@@H](NS(=O)(=O)Cc3ccccc3)C(=O)N[C@H](C(=O)NCc3ccc(C(=N)N)cc3)Cc3ccc(cc3)NC(=O)CN1C[C@@H]2C`, the Ki in test [1] was determined as 55 nM; in test [2], 4800 nM; in test [3], 8510 nM; in test [4] it was 242 nM; in test [6], 1.62 nM; in test [5] it was 3700 nM.
As to `N=C(N)c1ccc(CNC(=O)[C@@H]2Cc3ccc(cc3)NC(=O)CCN3CCCN(CCC(=O)Nc4ccc(cc4)C[C@@H](NS(=O)(=O)Cc4ccccc4)C(=O)N2)CC3)cc1`, the Ki in test [1] is 10.2 nM; in test [2], 7800 nM; in test [3] it was 11200 nM; in test [4], 422 nM; in test [6], 1.32 nM; in test [5], 8500 nM.
As to `N=C(N)c1ccc(CNC(=O)[C@@H]2Cc3ccc(cc3)NC(=O)CN3CCCN(CC3)CC(=O)Nc3ccc(cc3)C[C@@H](NS(=O)(=O)Cc3ccccc3)C(=O)N2)cc1`, the Ki in test [1] is 3 nM; in test [2], greater than 10000 nM; in test [3] it was 14100 nM; in test [4], 392 nM; in test [6], 0.57 nM; in test [5] it was 7360 nM.
For `N=C(N)c1ccc(CNC(=O)[C@@H]2Cc3cccc(c3)NC(=O)CN3CCN(CC3)CC(=O)Nc3ccc(cc3)C[C@@H](NS(=O)(=O)Cc3ccccc3)C(=O)N2)cc1`, the Ki in test [1] is 19.4 nM; in test [2], 4100 nM; in test [3] it was 8020 nM; in test [4] it was 12.9 nM; in test [5] it was 1800 nM.
As for `C[C@H]1CN2CC(=O)Nc3ccc(cc3)C[C@@H](C(=O)NCc3ccc(C(=N)N)cc3)NC(=O)[C@H](NS(=O)(=O)Cc3ccccc3)Cc3ccc(cc3)CNC(=O)CN1C[C@@H]2C`, the Ki turned out to be 126 nM in test [1]; 1600 nM in test [2]; 2950 nM in test [3]; 116 nM in test [4]; 1.71 nM in test [6]; 3250 nM in test [5].

What is called Ki is the equilibrium dissociation constant of an inhibitor or competing ligand from its target. Low values mean tighter binding, high ones weaker binding.
